The values that follow come from US8497279B2, “Treatment for discoid lupus” (Rigel Pharmaceuticals, Inc., priority 2011, dated 2013).

Where a name gives a salt, the structure may show the parent alone. Read-outs that look alike come from different tables or passages of the source.

Experiment [1] deals with TNFα. Description: Other cytokine signaling (TNFα). Format: cell-based.
Experiment [2] addresses T1, Syk (Homo sapiens, UniProt P43405).
T1 construct: endogenous in cells
Description: Human cell based assay against Syk. Particulars: human cell based assays; read-out: half maximal effective concentration (EC50) against Syk.

For experiment [3], the system named is IL-1β. Description: Other cytokine signaling (IL-1β). Format: cell-based.
Experiment [4] deals with T2, JAK3 (Homo sapiens, UniProt P52333).
T2 construct: endogenous in cells
T2 sequence (P52333 1-1124): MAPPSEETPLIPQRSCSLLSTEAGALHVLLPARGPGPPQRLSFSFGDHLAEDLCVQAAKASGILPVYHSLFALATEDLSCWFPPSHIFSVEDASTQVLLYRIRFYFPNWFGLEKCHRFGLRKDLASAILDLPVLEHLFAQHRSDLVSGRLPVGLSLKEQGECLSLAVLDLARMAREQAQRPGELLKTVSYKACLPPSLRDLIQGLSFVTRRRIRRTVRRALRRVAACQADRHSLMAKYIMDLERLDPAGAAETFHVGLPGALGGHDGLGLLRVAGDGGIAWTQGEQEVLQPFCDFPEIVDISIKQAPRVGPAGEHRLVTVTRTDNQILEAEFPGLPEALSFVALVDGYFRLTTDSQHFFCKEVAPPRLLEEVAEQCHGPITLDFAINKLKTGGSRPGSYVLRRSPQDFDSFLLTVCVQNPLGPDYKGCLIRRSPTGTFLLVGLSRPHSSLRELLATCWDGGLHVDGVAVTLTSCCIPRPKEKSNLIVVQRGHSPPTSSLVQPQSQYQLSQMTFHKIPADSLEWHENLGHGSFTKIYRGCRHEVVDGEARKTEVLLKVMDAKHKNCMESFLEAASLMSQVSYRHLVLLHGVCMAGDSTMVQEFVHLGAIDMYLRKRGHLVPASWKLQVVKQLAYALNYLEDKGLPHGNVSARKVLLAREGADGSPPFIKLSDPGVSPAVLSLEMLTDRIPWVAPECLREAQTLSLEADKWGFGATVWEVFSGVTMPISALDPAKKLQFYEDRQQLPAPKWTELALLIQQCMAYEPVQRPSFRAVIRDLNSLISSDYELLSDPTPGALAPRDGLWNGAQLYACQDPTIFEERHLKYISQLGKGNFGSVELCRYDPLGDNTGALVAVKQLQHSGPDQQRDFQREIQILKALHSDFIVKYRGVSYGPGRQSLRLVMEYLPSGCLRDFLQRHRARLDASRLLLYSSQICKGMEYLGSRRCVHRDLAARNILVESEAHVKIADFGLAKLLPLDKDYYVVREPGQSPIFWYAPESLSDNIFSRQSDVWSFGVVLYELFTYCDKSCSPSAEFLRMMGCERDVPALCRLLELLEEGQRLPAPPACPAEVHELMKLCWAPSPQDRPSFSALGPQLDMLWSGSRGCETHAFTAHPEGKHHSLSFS
The experiment in a line: Human cell based assay against JAK3. To be noted: human cell based assays; read-out: half maximal effective concentration (EC50) against JAK3.

In experiment [5] the test system is receptor tyrosine kinase (RTK). Description: Receptor tyrosine kinase (RTK) signaling. The format is cell-based.
The test system of experiment [6] is cell proliferation. Description: Cell proliferation (broad inhibition). The format is cell-based.
The test system of experiment [7] is JAK1 and JAK3 kinases. Description: Ramos B-cell line stimulated with IL-4, CD23 upregulation (FACS). Format: cell-based, human. As for the experimental part: One means of assaying for JAK inhibition is detection of the effect of compounds I and II on the upregulation of downstream gene products. In the Ramos/IL4 assay, B-cells are stimulated with the cytokine Interleukin-4 (IL-4) leading to the activation of the JAK/Stat pathway through phosphorylation of the JAK family kinases, JAK1 and JAK3, which in turn phosphorylate and activate the transcription factor Stat-6. […] Twenty to 24 hours post stimulation, cells are stained for upregulation of CD23 and analyzed using flow cytometry (FACS). […] An exemplary assay of this type is described in greater detail below. B-cells stimulated with cytokine Interleukin-4 (IL-4) activate the JAK/Stat pathway through phosphorylation of the JAK family kinases, JAK-1 and JAK-3, which in turn phosphorylate and activate the transcription factor Stat-6. […] To study the effect of inhibitors on the JAK family kinases, human Ramos B cells are stimulated with human IL-4. The Ramos B-cell line was acquired from [NT] No. CRL-1596). The cells were cultured in RPMI 1640 (Cellgro, MediaTech, Inc., Herndon, Va., Cat No. 10-040-CM) with 10% fetal bovine serum (FBS), heat inactivated (JRH Biosciences, Inc, Lenexa, Kans., Cat No. 12106-500M) according to ATCC propagation protocol. Cells were maintained at a density of 3.5×10^5. The day before the experiment, Ramos B-cells were diluted to 3.5×10^5 cells/mL to ensure that they were in a logarithmic growth phase. Cells were spun down and suspended in RPMI with 5% serum. 5×10^4 cells were used per point in a 96-well tissue culture plate. Cells were pre-incubated with compound or DMSO (Sigma-Aldrich, St. Louis, Mo., Cat No. D2650) vehicle control for 1 hour in a 37° C. incubator. Cells were then stimulated with IL-4 (Peprotech Inc., Rocky Hill, N.J., Cat No. 200-04) for a final concentration of 50 units/mL for 20-24 hours. Cells were then spun down and stained with anti-CD23-PE(BD Pharmingen, San Diego, Calif., Cat No. 555711) and analyzed by FACS. Detection was performed using a BD LSR I System Flow Cytometer, purchased from Becton Dickinson Biosciences of San Jose, Calif.

Experiment [8] concerns primary human T-cells. Description: Primary human T-cell proliferation assay stimulated with IL-2 (CellTiter-Glo). Format: cell-based. To be noted: read-out: Example 4 IC50. The source says: In this assay, primary human T-cells derived from peripheral blood and pre-activated through stimulation of the T-cell receptor and CD28, proliferate in culture in response to the cytokine Interleukin-2 (IL-2). This proliferative response is dependent on the activation of JAK1 and JAK3 tyrosine kinases, which phosphorylate and activate the transcription factor Stat-5. […] A reduction in cell proliferation compared to control conditions is indicative of inhibition of the JAK kinase pathway. An exemplary assay of this type is described in greater detail below.
Primary human T-cells derived from peripheral blood and pre-activated through stimulation of the T-cell receptor and CD28, proliferate in vitro in response to the cytokine Interleukin-2 (IL-2). This proliferative response is dependent on the activation of JAK-1 and JAK-3 tyrosine kinases, which phosphorylate and activate the transcription factor Stat-5.
Human primary T cells were prepared as follows. […] The lymphocytes at the serum: ficoll interface were recovered and washed twice with 5 volumes of PBS. […] The primary T-cells were stimulated for 3-4 days, then transferred to a fresh flask and maintained in RPMI with 10% FBS and 40 U/mL IL-2.
Primary T-cells were washed twice with PBS to remove the IL-2 and resuspended in Yssel's medium at 2×10^6 cells/mL. 50 μL of cell suspension containing 80 U/mL IL-2 was added to each well of a flat bottom 96 well black plate. For the unstimulated control, IL-2 was omitted from the last column on the plate. […] 50 μL of 2× compound was added per well in duplicate and the cells were allowed to proliferate for 72 hours at 37° C.
Proliferation was measured using CellTiter-Glo® Luminescent Cell Viability Assay (Promega), which determines the number of viable cells in culture based on quantitation of the ATP present, as an indicator of metabolically active cells. The substrate was thawed and allowed to come to room temperature. After mixing the Cell Titer-Glo reagent and diluent together, 100 μL was added to each well. […]

The subject of experiment [9] is JAK/Stat pathway. Description: U937 IFNγ ICAM1 FACS assay. The format is cell-based, human. To be noted: U937 cells, IFNγ 10 ng/mL, 18-24 hours, ICAM-1 expression; read-out: Example 6 IC50. The procedure: U937 human monocytic cells up-regulate ICAM-1 (CD54) surface expression in response to a variety of different stimuli. Therefore, using ICAM-1 expression as readout, compound effects on different signaling pathways can be assessed in the same cell type. IFNγ up-regulates ICAM-1 through activation of the JAK/Stat pathway. In this example, the up-regulation of ICAM-1 by IFNγ was assessed.
U937 cells were grown in 10% RPMI. The cells were then plated at a concentration of 100,000 cells per 160 μL in 96 well flat bottom plates. […] Then 4 μL of test compound was transferred to 76 μL of 10% RPMI resulting in a 10× solution (100 μM test compound, 5% DMSO). For control wells, 4 μL of DMSO was diluted into 76 μL 10% RPMI.
The assay was performed in duplicate with 8 points (8 3-fold dilution concentrations from […]) and with 4 wells of DMSO only (control wells) under stimulated conditions and 4 wells of DMSO only under unstimulated conditions.
The diluted compound plate was mixed 2× using a multimek (Beckman Coulter of Brea, Calif.) and then 20 μL of the diluted compounds was transferred to the 96 well plate containing 160 μL of cells, which were then mixed again twice at low speeds. The cells and compounds were then pre-incubated for 30 minutes at 37° C. with 5% CO2.
The 10× stimulation mix was made by preparing a 100 ng/mL solution of human IFNγ in 10% RPMI. […] The cells were kept under conditions for stimulation for 18-24 hours at 37° C. with 5% CO2.
The cells were transferred to a 96 well round bottom plate for staining and then kept on ice for the duration of the staining procedure. Cells were spun down at 1000 rpm for 5 minutes at 4° C., following which the supernatant was removed. Following removal of the supernatant, 1 μL APC conjugated mouse anti-human ICAM-1 antibody was added per 100 μL FACS buffer. The cells were then incubated on ice in the dark for 30 minutes. Following incubation, 150 μL of FACS buffer was added and the cells were centrifuged at 1000 rpm for 5 minutes at 4° C., following which the supernatant was removed. […]
Both % live cells and ICAM-1 expression was analyzed. […]

As for `C#CCOc1ccc(Nc2nc(Nc3ccc(C)c(S(N)(=O)=O)c3)ncc2F)cc1` [Compound I, N2-(3-Aminosulfonyl-4-methylphenyl)-5-fluoro-N-4-[4-(prop-2-ynyloxy)phenyl]-2,4-pyrimidinediamine], the “activity on other cytokine signaling (TNFα)” value in experiment [1] is recorded as “little or no activity”. Further, the EC50 in experiment [2] was around 140 nM; in experiment [4], around 180 nM. Further, in [3], the “activity on other cytokine signaling (IL-1β)” value is reported as “little or no activity”. In addition, the “activity on receptor tyrosine kinase (RTK) signaling” value in experiment [5] is on record as “little or no activity”. Further, the “inhibition of cell proliferation” value in experiment [6] is reported as “not a broad inhibitor of cell proliferation”.

With `C#CCOc1ccc(Nc2nc(Nc3ccc(C)c(S(=O)(=O)NC(=O)CC)c3)ncc2F)cc1` [II, 5-fluoro-N2-(4-methyl-3-propionylaminosulfonylphenyl)-N-4-[4-(prop-2-ynyloxy)phenyl]-2,4-pyrimidinediamine], the IC50 in [7] (Homo sapiens, Ramos B cells, IL-4 50 units/mL, 20-24 hours, CD23 staining, read-out: Example 3 IC50) stood at 9660 nM.

On to `C#CCOc1ccc(Nc2nc(Nc3ccc(C)c(S(=O)(=O)NC(=O)CC)c3)ncc2F)cc1` [III, 5-fluoro-N2-(4-methyl-3-propionylaminosulfonylphenyl)-N-4-[4-(prop-2-ynyloxy)phenyl]-2,4-pyrimidinediamine mono-sodium salt], for which the IC50 in experiment [7] (Ramos B cells, IL-4 50 units/mL, 20-24 hours, CD23 staining, mono-sodium salt, read-out: Example 3 IC50) turned out to be 3970 nM.

For `C#CCOc1ccc(Nc2nc(Nc3ccc(C)c(S(=O)(=O)NC(=O)CC)c3)ncc2F)cc1` [IV, 5-Fluoro-N2-[4-methyl-3-(N-propionylaminosulfonyl)phenyl]-N4-[4-(2-propynyloxy)phenyl]-2,4-pyrimidinediamine Potassium Salt], the IC50 came out at 5560 nM in experiment [8] (Homo sapiens, T-cell, 72 h) and 2320 nM in [7] (Homo sapiens, Ramos, read-out: Example 3 IC50, Ramos B cells, IL-4 50 units/mL, 20-24 hours, CD23 staining).

Take `C#CCOc1ccc(Nc2nc(Nc3ccc(C)c(S(=O)(=O)NC(=O)CC)c3)ncc2F)cc1` [V, 5-Fluoro-N2-[4-methyl-3-(N-propionylaminosulfonyl)phenyl]-N-4-[4-(2-propynyloxy)phenyl]-2,4-pyrimidinediamine Calcium Salt]: the IC50 was 25100 nM in [9] and 373 nM in experiment [7] (Ramos B cells, IL-4 50 units/mL, 20-24 hours, CD23 staining, Calcium Salt, read-out: Example 3 IC50).

Turning to `C#CCOc1ccc(Nc2nc(Nc3ccc(C)c(S(=O)(=O)NC(=O)CC)c3)ncc2F)cc1` [VII, 5-Fluoro-N2-[4-methyl-3-(N-propionylaminosulfonyl)phenyl]-N4-[4-(2-propynyloxy)phenyl]-2,4-pyrimidinediamine Choline Salt], the IC50 in [8] (primary human T-cells, IL-2, 72 hours, ATP readout) worked out at 53 nM; in experiment [9] it was 140 nM; in experiment [7] (Ramos B cells, IL-4 50 units/mL, 20-24 hours, CD23 staining, read-out: Example 3 IC50) it was 22 nM.
